This is an account of results in ChEMBL document CHEMBL2074139, “Increase in bile flow and biliary excretion of glutathione-derived sulfhydryls in rats by drug-metabolizing enzyme inducers is mediated by multidrug resistance protein 2” (Toxicol Sci, 2002).

In the data set the target is ATP-binding cassette sub-family C member 2 (Rattus norvegicus, UniProt Q63120). In words: TP_TRANSPORTER: Western in vivo SD rat, liver. The format is functional, organism-based, Sprague-Dawley.

The structures appear in SMILES notation.

Chain of ATP-binding cassette sub-family C member 2 (Q63120 whole entry): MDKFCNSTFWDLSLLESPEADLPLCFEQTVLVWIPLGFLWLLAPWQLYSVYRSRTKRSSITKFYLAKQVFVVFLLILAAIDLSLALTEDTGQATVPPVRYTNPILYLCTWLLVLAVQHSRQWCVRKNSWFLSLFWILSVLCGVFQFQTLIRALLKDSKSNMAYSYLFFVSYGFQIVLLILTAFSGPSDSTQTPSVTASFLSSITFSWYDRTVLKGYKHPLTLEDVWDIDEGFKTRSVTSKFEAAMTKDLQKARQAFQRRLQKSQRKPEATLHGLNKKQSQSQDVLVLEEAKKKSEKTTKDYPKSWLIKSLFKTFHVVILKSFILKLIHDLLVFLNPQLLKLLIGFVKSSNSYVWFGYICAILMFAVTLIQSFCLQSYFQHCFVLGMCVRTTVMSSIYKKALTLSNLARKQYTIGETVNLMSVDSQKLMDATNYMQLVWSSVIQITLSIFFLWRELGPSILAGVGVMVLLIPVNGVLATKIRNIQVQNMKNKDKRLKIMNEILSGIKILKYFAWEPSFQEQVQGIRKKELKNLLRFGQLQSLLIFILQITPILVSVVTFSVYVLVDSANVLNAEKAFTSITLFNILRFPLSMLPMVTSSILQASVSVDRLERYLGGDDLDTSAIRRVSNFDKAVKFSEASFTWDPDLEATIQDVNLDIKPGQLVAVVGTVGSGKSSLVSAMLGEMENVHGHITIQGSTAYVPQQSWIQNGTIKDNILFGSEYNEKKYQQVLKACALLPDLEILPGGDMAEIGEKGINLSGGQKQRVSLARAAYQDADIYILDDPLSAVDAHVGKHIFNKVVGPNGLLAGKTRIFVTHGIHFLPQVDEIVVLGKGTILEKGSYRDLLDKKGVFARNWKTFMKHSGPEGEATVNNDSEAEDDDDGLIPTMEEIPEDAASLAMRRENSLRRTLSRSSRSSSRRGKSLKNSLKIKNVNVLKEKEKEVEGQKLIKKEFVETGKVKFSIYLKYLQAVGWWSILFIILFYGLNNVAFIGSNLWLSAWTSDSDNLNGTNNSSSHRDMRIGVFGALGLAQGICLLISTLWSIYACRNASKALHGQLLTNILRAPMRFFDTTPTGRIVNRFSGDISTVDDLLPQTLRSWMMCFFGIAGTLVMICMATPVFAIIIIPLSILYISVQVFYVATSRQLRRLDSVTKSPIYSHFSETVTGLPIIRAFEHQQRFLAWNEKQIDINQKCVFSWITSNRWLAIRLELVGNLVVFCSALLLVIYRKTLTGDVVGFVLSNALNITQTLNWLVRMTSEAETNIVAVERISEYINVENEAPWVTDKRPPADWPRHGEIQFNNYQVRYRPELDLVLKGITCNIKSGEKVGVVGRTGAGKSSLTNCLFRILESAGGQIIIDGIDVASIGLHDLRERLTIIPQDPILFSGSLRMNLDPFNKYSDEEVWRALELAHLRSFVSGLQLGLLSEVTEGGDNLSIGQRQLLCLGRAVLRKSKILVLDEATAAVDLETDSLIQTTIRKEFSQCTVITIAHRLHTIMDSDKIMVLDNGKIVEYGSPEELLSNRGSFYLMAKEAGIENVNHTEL

Regarding `CC(=O)[C@H]1[C@H](C#N)C[C@H]2[C@@H]3CC=C4C[C@@H](O)CC[C@]4(C)[C@H]3CC[C@@]21C` [PREGNENOLONE CARBONITRILE], the Activity result is “inducer [+]”.

Take `CCC1(c2ccccc2)C(=O)NC(=O)NC1=O` [PHENOBARBITAL]: the Activity entry was “inducer [+]”.
